In ChEMBL document CHEMBL5260845, “Flavone-based arylamides as potential anticancers: Design, synthesis and in vitro cell-based/cell-free evaluations” (2020):
Active and inactive are the calls of the source. No cut-off for these calls is given here.

What was measured:
MCF7 = test: Antiproliferative activity against estrogen receptor positive human MCF7 cells assessed as inhibition of cell growth at 10 uM by SRB assay relative to control; format: functional
T47D = test: Antiproliferative activity against human T47D cells assessed as inhibition of cell growth at 10 uM by SRB assay relative to control; format: functional
BT-549 = test: Antiproliferative activity against triple negative human BT-549 cells assessed as inhibition of cell growth at 10 uM by SRB assay relative to control; format: functional
MDA-MB-231 = test: Antiproliferative activity against human MDA-MB-231 cells assessed as inhibition of cell growth at 10 uM by SRB assay relative to control; format: functional
SF-295 [1] = test: Antiproliferative activity against human SF-295 cells assessed as cell growth inhibition at 10 uM by SRB assay relative to control; format: functional
SNB-75 = test: Antiproliferative activity against human SNB-75 cells assessed as cell growth inhibition at 10 uM by SRB assay relative to control; format: functional
SK-MEL-28 = test: Antiproliferative activity against human SK-MEL-28 cells assessed as cell growth inhibition at 10 uM by SRB assay relative to control; format: functional
SK-MEL-5 = test: Antiproliferative activity against human SK-MEL-5 cells assessed as cell growth inhibition at 10 uM by SRB assay relative to control; format: functional
Malme-3M = test: Antiproliferative activity against human Malme-3M cells assessed as cell growth inhibition at 10 uM by SRB assay relative to control; format: functional
CCRF-CEM = test: Antiproliferative activity against human CCRF-CEM cells assessed as cell growth inhibition at 10 uM by SRB assay; format: functional, cell-based
HL-60 = test: Antiproliferative activity against human HL-60 cells assessed as cell growth inhibition at 10 uM by SRB assay; format: functional, cell-based
K562 = test: Antiproliferative activity against human K562 cells assessed as cell growth inhibition at 10 uM by SRB assay; format: functional, cell-based
MOLT-4 = test: Antiproliferative activity against human MOLT-4 cells assessed as cell growth inhibition at 10 uM by SRB assay; format: functional, cell-based
RPMI-8226 [2] = test: Antiproliferative activity against human RPMI-8226 cells assessed as cell growth inhibition at 10 uM by SRB assay; format: functional, cell-based
SR = test: Antiproliferative activity against human SR cells assessed as cell growth inhibition at 10 uM by SRB assay; format: functional, cell-based
A549 = test: Antiproliferative activity against human A549 cells assessed as cell growth inhibition at 10 uM by SRB assay; format: functional, cell-based
EKVX = test: Antiproliferative activity against human EKVX cells assessed as cell growth inhibition at 10 uM by SRB assay; format: functional
HOP-62 [3] = test: Antiproliferative activity against human HOP-62 cells assessed as cell growth inhibition at 10 uM by SRB assay; format: functional, cell-based
HOP-92 = test: Antiproliferative activity against human HOP-92 cells assessed as cell growth inhibition at 10 uM by SRB assay; format: functional, cell-based
NCI-H226 = test: Antiproliferative activity against human NCI-H226 cells assessed as cell growth inhibition at 10 uM by SRB assay; format: functional
NCI-H23 = test: Antiproliferative activity against human NCI-H23 cells assessed as cell growth inhibition at 10 uM by SRB assay; format: functional
NCI-H322M = test: Antiproliferative activity against human NCI-H322M cells assessed as cell growth inhibition at 10 uM by SRB assay; format: functional, cell-based
NCI-H460 [4] = test: Antiproliferative activity against human NCI-H460 cells assessed as cell growth inhibition at 10 uM by SRB assay; format: functional, cell-based
NCI-H522 = test: Antiproliferative activity against human NCI-H522 cells assessed as cell growth inhibition at 10 uM by SRB assay; format: functional, cell-based
HCT-116 [5] = test: Antiproliferative activity against human HCT-116 cells assessed as cell growth inhibition at 10 uM by SRB assay relative to control; format: functional
SF-268 = test: Antiproliferative activity against human SF-268 cells assessed as cell growth inhibition at 10 uM by SRB assay relative to control; format: functional
U-251 = test: Antiproliferative activity against human U-251 cells assessed as cell growth inhibition at 10 uM by SRB assay relative to control; format: functional
SF-539 = test: Antiproliferative activity against human SF-539 cells assessed as cell growth inhibition at 10 uM by SRB assay relative to control; format: functional
SNB-19 = test: Antiproliferative activity against human SNB-19 cells assessed as cell growth inhibition at 10 uM by SRB assay relative to control; format: functional
SF-295 [6] = test: Antiproliferative activity against human SF-295 cells assessed as cell growth inhibition at 10 uM by SRB assay; format: functional, cell-based
SK-MEL-2 = test: Antiproliferative activity against human SK-MEL-2 cells assessed as cell growth inhibition at 10 uM by SRB assay relative to control; format: functional
UACC-257 = test: Antiproliferative activity against human UACC-257 cells assessed as cell growth inhibition at 10 uM by SRB assay relative to control; format: functional
UACC-62 = test: Antiproliferative activity against human UACC-62 cells assessed as cell growth inhibition at 10 uM by SRB assay relative to control; format: functional
M14 = test: Antiproliferative activity against human M14 cells assessed as cell growth inhibition at 10 uM by SRB assay relative to control; format: functional
LOX IMVI = test: Antiproliferative activity against human LOX IMVI cells assessed as cell growth inhibition at 10 uM by SRB assay relative to control; format: functional
MDA-MB-435 = test: Antiproliferative activity against human MDA-MB-435 cells assessed as cell growth inhibition at 10 uM by SRB assay relative to control; format: functional
OVCAR-4 = test: Antiproliferative activity against human OVCAR-4 cells assessed as cell growth inhibition at 10 uM by SRB assay relative to control; format: functional
OVCAR-8 = test: Antiproliferative activity against human OVCAR-8 cells assessed as cell growth inhibition at 10 uM by SRB assay relative to control; format: functional
OVCAR-3 = test: Antiproliferative activity against human OVCAR-3 cells assessed as cell growth inhibition at 10 uM by SRB assay relative to control; format: functional; settings: pooled result: one value given for 2 cell lines, strains, targets or settings
IGROV-1 = test: Antiproliferative activity against human IGROV-1 cells assessed as cell growth inhibition at 10 uM by SRB assay relative to control; format: functional
786-0 = test: Antiproliferative activity against human 786-0 cells assessed as inhibition of cell growth at 10 uM by SRB assay relative to control; format: functional
ACHN = test: Antiproliferative activity against human ACHN cells assessed as inhibition of cell growth at 10 uM by SRB assay relative to control; format: functional; settings: pooled result: one value given for 2 cell lines, strains, targets or settings
RXF 393 = test: Antiproliferative activity against human RXF 393 cells assessed as inhibition of cell growth at 10 uM by SRB assay relative to control; format: functional
SN12C = test: Antiproliferative activity against human SN12C cells assessed as inhibition of cell growth at 10 uM by SRB assay relative to control; format: functional
A498 = test: Antiproliferative activity against human A498 cells assessed as inhibition of cell growth at 10 uM by SRB assay relative to control; format: functional
DU-145 = test: Antiproliferative activity against human DU-145 cells assessed as inhibition of cell growth at 10 uM by SRB assay relative to control; format: functional
Hs-578T = test: Antiproliferative activity against human Hs-578T cells assessed as inhibition of cell growth at 10 uM by SRB assay relative to control; format: functional
RPMI-8226 [7] = test: Antiproliferative activity against human RPMI-8226 cells assessed as cell growth inhibition at 10 uM by SRB assay relative to control; format: functional
HOP-62 [8] = test: Antiproliferative activity against human HOP-62 cells assessed as cell growth inhibition at 10 uM by SRB assay relative to control; format: functional
NCI-H460 [9] = test: Antiproliferative activity against human NCI-H460 cells assessed as cell growth inhibition at 10 uM by SRB assay relative to control; format: functional
COLO 205 = test: Antiproliferative activity against human COLO 205 cells assessed as cell growth inhibition at 10 uM by SRB assay; format: functional, cell-based
HCC 2998 = test: Antiproliferative activity against human HCC 2998 cells assessed as cell growth inhibition at 10 uM by SRB assay; format: functional, cell-based
HCT-116 [10] = test: Antiproliferative activity against human HCT-116 cells assessed as cell growth inhibition at 10 uM by SRB assay; format: functional, cell-based
HCT-15 = test: Antiproliferative activity against human HCT-15 cells assessed as cell growth inhibition at 10 uM by SRB assay; format: functional, cell-based
HT-29 = test: Antiproliferative activity against human HT-29 cells assessed as cell growth inhibition at 10 uM by SRB assay; format: functional, cell-based
KM12 = test: Antiproliferative activity against human KM12 cells assessed as cell growth inhibition at 10 uM by SRB assay; format: functional, cell-based
SW-620 = test: Antiproliferative activity against human SW620 cells assessed as cell growth inhibition at 10 uM by SRB assay; format: functional, cell-based
PC-3 = test: Antiproliferative activity against human PC-3 cells assessed as inhibition of cell growth at 10 uM by SRB assay relative to control; format: functional
Lung cancer cell line = test: Antiproliferative activity against human lung cancer cells assessed as cell growth inhibition at 10 uM by SRB assay relative to control; format: functional
Prostatic carcinoma cell = test: Antiproliferative activity against human prostatic carcinoma cells assessed as cell growth inhibition at 10 uM by SRB assay relative to control; format: functional
Ovarian cancer cell line = test: Antiproliferative activity against human ovarian cancer cells assessed as cell growth inhibition at 10 uM by SRB assay relative to control; format: functional

CN(Cc1cnc2nc(N)nc(N)c2n1)c1ccc(C(=O)N[C@@H](CCC(=O)O)C(=O)O)cc1 [METHOTREXATE]
inhibition at 10 µM (MCF7): 82.8% | inhibition at 10 µM (T47D): 53.8% | inhibition at 10 µM (BT-549): 53.1% | inhibition at 10 µM (MDA-MB-231): 40.1%

COc1cc2oc(-c3cccc(NC(=O)c4ccc(Br)cc4)c3)cc(=O)c2c(OC)c1OC
inhibition at 10 µM (SF-295 [1]): > 50% | inhibition at 10 µM (SNB-75): > 50% | inhibition at 10 µM (SK-MEL-28): 50.8% | inhibition at 10 µM (SK-MEL-5): 50.8% | inhibition at 10 µM (Malme-3M): 39.1% | inhibition (CCRF-CEM): Active | inhibition (HL-60): Active | inhibition (K562): Active | inhibition (MOLT-4): Active | inhibition (RPMI-8226 [2]): Active | inhibition (SR): Active | inhibition (A549): Active | inhibition (EKVX): Active | inhibition at 10 µM (EKVX): < 50% | inhibition (HOP-62 [3]): Active | inhibition (HOP-92): Active | inhibition (NCI-H226): Active | inhibition at 10 µM (NCI-H226): < 50% | inhibition (NCI-H23): Active | inhibition at 10 µM (NCI-H23): < 50% | inhibition (NCI-H322M): Active | inhibition (NCI-H460 [4]): Active | inhibition (NCI-H522): Active | inhibition at 10 µM (HCT-116 [5]): 84% | inhibition at 10 µM (SF-268): > 50% | inhibition at 10 µM (U-251): > 50% | inhibition at 10 µM (SF-539): 47.1% | inhibition at 10 µM (SNB-19): 41.2% | inhibition (SF-295 [6]): Active | inhibition at 10 µM (SK-MEL-2; Homo sapiens, SK-MEL-2, dose 10 µM): ≤ 46% | inhibition (INH) (SK-MEL-2; dose 10 µM): 39.07% | inhibition at 10 µM (UACC-257): 39.1% | inhibition at 10 µM (UACC-62): 39.1% | inhibition at 10 µM (M14): 50.8% | inhibition at 10 µM (LOX IMVI): 50.8% | inhibition at 10 µM (MDA-MB-435): 50.8% | inhibition at 10 µM (OVCAR-4): 52.9% | inhibition at 10 µM (OVCAR-8): 52.9% | inhibition at 10 µM (OVCAR-3): 52.9% | inhibition at 10 µM (IGROV-1): 52.9% | inhibition at 10 µM (786-0): 84% | inhibition at 10 µM (ACHN): 63.6% | inhibition at 10 µM (RXF 393): 63.6% | inhibition at 10 µM (SN12C): 63.6% | inhibition at 10 µM (A498): 63.6% | inhibition at 10 µM (DU-145): > 50% | inhibition at 10 µM (MDA-MB-231): 73.4% | inhibition at 10 µM (Hs-578T): 73.4%

COc1cc2oc(-c3cccc(C(=O)Nc4ccc(C#N)cc4)c3)cc(=O)c2c(O)c1OC
inhibition at 10 µM (SK-MEL-28): 67.2% | inhibition at 10 µM (Malme-3M): 52.3% | inhibition at 10 µM (RPMI-8226 [7]): 82.6% | inhibition (A549): Active | inhibition (NCI-H226): Active | inhibition (NCI-H23): Active | inhibition at 10 µM (HOP-62 [8]): 31.8% | inhibition at 10 µM (NCI-H460 [9]): 81.1% | inhibition (COLO 205): Active | inhibition (HCC 2998): Active | inhibition (HCT-116 [10]): Active | inhibition (HCT-15): Active | inhibition (HT-29): Active | inhibition (KM12): Active | inhibition (SW-620): Active | inhibition at 10 µM (UACC-62): 50.5% | inhibition at 10 µM (OVCAR-4): 88.3% | inhibition at 10 µM (OVCAR-8): 70.9% | inhibition at 10 µM (DU-145): 65.8% | inhibition at 10 µM (PC-3): 92.1% | inhibition at 10 µM (Lung cancer cell line): > 50% | inhibition at 10 µM (Prostatic carcinoma cell): > 50% | inhibition at 10 µM (Ovarian cancer cell line): > 50%
